Test results from US4003945A, “Novel cyclopropanecarboxylates” (Sumitomo Chemical Company, Limited, priority 1973, dated 1977).
Converted amounts (≈) assume the structure as drawn.

These compounds were tested on 3rd or 4th instar larvae of tobacco cut worm (assay: Diluted emulsion sprayed by settling tower on larvae (Example X)). Conditions: emulsion diluted to 50 times, 1 ml.
Assay type: in vivo
Protocol: Ten of the 3rd or 4th instar larvae of tobacco cut worm were put into a petri dish of 17 cm in diameter.
One ml of the present compound (4, 11, 28, 92, 94, 95, 109, 111) in form of an emulsion obtained in Example X, which were diluted to 50 times with water, were sprayed by means of a settling tower. The said larvae were removed into another petri dish with the leaves of the chinese cabbage leaves. Observation was made after 48 hrs. As a result, more than 90% of the larvae were dead in each case.

| SMILES | larvae dead after 48 hrs |
| --- | --- |
| C#CC(C#CCC=C)OC(=O)C1C(C=C2CCCC2)C1(C)C (stereo not drawn) [Compound 94, 1-Ethynylhexa-2-yn-5-en-1-yl 2',2'-dimethyl-3-'-cyclopentylidene-methylcyclopropanecarboxylate] | more than 90% |
| C#CC(OC(=O)C1C(C=C2CCCC2)C1(C)C)C(C)=CCC (stereo not drawn) [Compound 28, 1-Ethynyl-2-methyl-2-pentenyl 2',2'-dimethyl-3'-cyclopentylidene-methylcyclopropanecarboxylate] | more than 90% |
| C#CC(C#CCC=C)OC(=O)C1C(C=CC=C)C1(C)C (stereo not drawn) [Compound 92, 1-Ethynylhexa-2-yn-5-en-1-yl 2',2'-dimethyl-3'-(1",3"- butadienyl)cyclopropane-carboxylate] | more than 90% |
| C#CC(C#CCC=C)OC(=O)C1C(C=C(Cl)Cl)C1(C)C (stereo not drawn) [Compound 95, 1-Ethynylhexa-2-yn-5-en-1-yl 2',2'-dimethyl-3'-(2",2"- dichlorovinyl)cyclopropane-carboxylate] | more than 90% |
| C#CC(OC(=O)C1C(C)(C)C1(C)C)C(C)=CC (stereo not drawn) [Compound 11, 1-Ethynyl-2-methyl-2-butenyl 2',2',3',3'-tetramethylcyclo-propanecarboxylate] | more than 90% |

What follows are compounds tested on leafhoppers of resistant and susceptible strains (assay: Emulsion sprayed on rice seedlings, leafhoppers released (Example XVI)). Conditions: emulsion diluted to 50 times.
Assay type: in vivo, leafhopper
Protocol: About 20 rice seedlings, cultivated for 20 days after sowing in a flower pot of 8.5 cm in diameter were sprayed with each of the present compounds (31, 32, 35, 39, 40, 42, 45, 48, 55, 59, 60, 63, 131 - 134, 139) in the form of an emulsion which were diluted to 50 times. Each pot was put into the beaker and covered with gauze, into which leafhoppers of resistant and susceptible strains, respectively, were released in each beaker. And the number of knocked down insects after 1 hour and the mortality after 24 hours were counted. As a result, the knock down per centage was more than 50% and the mortality was more than 80% in each case.

| SMILES | knock down percentage after 1 hour | mortality after 24 hours |
| --- | --- | --- |
| C#CC(C=Cc1ccco1)OC(=O)C1C(C=C(C)C)C1(C)C (stereo not drawn) [Compound 60, α-Ethynyl-γ-(2-furyl)-allyl chrysanthemate] | more than 50% | more than 80% |
| C#CC(OC(=O)C1C(C)(C)C1(C)C)C(C)=Cc1ccccc1 (stereo not drawn) [Compound 39, α-Ethynyl-β-methylcinnamyl 2,2,3,3-tetramethyl-cyclopropanecarboxylate] | more than 50% | more than 80% |
| C#CC(OC(=O)C1(C)C(C=C2CCCC2)C1(C)C)C(C)=Cc1ccccc1C (stereo not drawn) [Compound 55, α-Ethynyl-β-methyl-2-methyl-cinnamyl 1',2',2'-trimethyl-3'-cyclopentylidenemethyl-cyclopropanecarboxylate] | more than 50% | more than 80% |
| C#CC(OC(=O)C1C(C=C(Cl)Cl)C1(C)C)C(C)=Cc1ccccc1 (stereo not drawn) [Compound 59, α-Ethynyl-β-methylcinnamyl 2,2-dimethyl-3-(2',2'-dichloro-vinyl)cyclopropanecarboxylate] | more than 50% | more than 80% |
| C#CC(OC(=O)C1C(C=C2CCCC2)C1(C)C)C(C)=Cc1ccccc1 (stereo not drawn) [Compound 40] | more than 50% | more than 80% |
| C#CC(OC(=O)C1C(C)(C)C1(C)C)C(=Cc1ccccc1)C(C)C (stereo not drawn) [Compound 48, α-Ethynyl-β-isopropylcinnamyl 2,2,3,3-tetramethylcyclopropane-carboxylate] | more than 50% | more than 80% |
| C#CC(OC(=O)C1C(C)C1(C)C)C(=Cc1ccc(OCC)cc1)CC (stereo not drawn) [Compound 42, α-Ethynyl-β-ethyl-4-ethoxy-cinnamyl 2',2',3'-trimethyl-cyclopropanecarboxylate] | more than 50% | more than 80% |
| C#CC(OC(=O)C1C(C=C(C)C=C)C1(C)C)C(C)=Cc1ccc(C#N)cc1 (stereo not drawn) [Compound 45, α-Ethynyl-β-methyl-4-cyano-cinnamyl 2',2'-dimethyl-3'-(2"-methyl-1",3"-butadienyl)-cyclopropanecarboxylate] | more than 50% | more than 80% |

These compounds were tested on adult planthoppers (assay: Residual effect on sprayed rice seedlings (Example XV)). Conditions: concentrate diluted to 400 times; observed 24 hours after release.
Assay type: in vivo
Protocol: About 20 rice seedlings, cultivated for 20 days after sowing in a flower pot of 8.5 cm in diameter, were sprayed with each of the emulsifiable concentrates obtained as in Example X which were diluted to 400 times with water. After air-drying, each pot was covered with a wire cage, into which 20 adult planthoppers were released as time elapsed. And the observation was made after 24 hours.

| SMILES | Mortality (%) After 1 day [%] | Mortality (%) After 6 days [%] |
| --- | --- | --- |
| CNC(=O)Oc1ccc(C)c(C)c1 [Meobal, 3,4-Dimethylphenyl-N-methylcarbamate, reference compound] | 100 | 40.0 |
| C#CC(OC(=O)C1C(C)(C)C1(C)C)C(C)=Cc1ccccc1 (stereo not drawn) [Compound 39, α-Ethynyl-β-methylcinnamyl 2,2,3,3-tetramethyl-cyclopropanecarboxylate] | 100 | 85.0 |
| C#CC(OC(=O)C1C(C=C2CCCC2)C1(C)C)C(C)=Cc1ccccc1 (stereo not drawn) [Compound 40] | 100 | 66.7 |

The compounds below were run on housefly adults (assay: Oil spray, Campbel's turn table, lethal concentration (Test Example 2)). Conditions: Musca domestica, 24 h.
Assay type: in vivo
Protocol: A group of about 100 housefly adults was exposed to descending spray for 10 minutes, thereafter was transferred to an observation cage, was fed, and was allowed to stand at room temperature.
After a day, the dead and alive were counted to calculate the lethal ratio.

| SMILES | LC50 [µg/mL] |
| --- | --- |
| C#CC(OC(=O)C1C(C=C(C)C)C1(C)C)C(C)=CCC=C (stereo not drawn) [Compound 29, 1-Ethynyl-2-methyl-2,5-hexadienyl chrysanthemate] | 900 (≈ 3140 µM) |
| C=CCC1=C(C)C(OC(=O)C2C(C=C(C)C)C2(C)C)CC1=O (stereo not drawn) [Allethrin, reference compound] | 3500 (≈ 11600 µM) |
| C#CC(OC(=O)C1C(C=C(C)C)C1(C)C)C(=CCCC)CC (stereo not drawn) [Compound 5, 1-Ethynyl-2-ethyl-2-hexenyl chrysanthemate] | 2400 (≈ 7930 µM) |
| C#CC(OC(=O)C1C(C=C(Cl)Cl)C1(C)C)C(C)=CCC=C (stereo not drawn) [Compound 127, 1-Ethynyl-2-methyl-2,5-hexadien-1-yl 2',2'-dimethyl-3'-(2",2"-di-chlorovinyl)-cyclopropane-carboxylate] | 250 (≈ 764 µM) |
| C#CC(OC(=O)C1C(C=C(Cl)Cl)C1(C)C)/C(C)=C/CC (stereo not drawn) [Compound 126, 1-Ethynyl-2-methyl-2-pentenyl 2',2'-dimethyl-3'-(2",2"-dichlorovinyl)-yclopropanecarboxylate] | 300 (≈ 952 µM) |
| C#CC(OC(=O)C1C(C=C(Cl)Cl)C1(C)C)C(C)=CCCC=C (stereo not drawn) [Compound 129, 1-Ethynyl-2-methyl-2,6-heptadien-1-yl 2',2'-dimethyl-3'-(2",2"-dichlorovinyl)-cyclopropane-carboxylate] | 230 (≈ 674 µM) |
| C#CC(OC(=O)C1C(C=C(Cl)Cl)C1(C)C)C(C)=CC (stereo not drawn) [Compound 130, 1-Ethynyl-2-methyl-2-butenyl 2',2'-dimethyl-3'-2',2"-dichlorovinyl-cyclopropanecarboxylate] | 1500 (≈ 4980 µM) |
| C#CC(OC(=O)C1C(C=C(C)C)C1(C)C)C(C)=CCCC=C (stereo not drawn) [Compound 128, 1-Ethynyl-2-methyl-2,6-heptadien-1-yl-chrysanthemate] | 900 (≈ 3000 µM) |

Same assay, conditions: Musca domestica, 24 h; Table 3a; oil spray 5 ml, 10 minutes exposure, counted after a day; read-out: LC50

| SMILES | LC50 [µg/mL] |
| --- | --- |
| C#CC(C#CCC=C)OC(=O)C1C(C=C(C)C)C1(C)C (stereo not drawn) [Compound 71, 1-Ethynylhexa-2-yn-5-en-1-yl chrysanthemate] | 2900 (≈ 10700 µM) |
| C#CC(C#CCOC)OC(=O)C1C(C=C(Cl)Cl)C1(C)C (stereo not drawn) [Compound 142, 1-Ethynyl-4-methoxy-2-butyn-1-yl 2',2'-dimethyl-3'-(2",2"- dichlorovinyl)-cyclopropane-carboxylate] | 1200 (≈ 3810 µM) |
| C#CC(C#CCOc1ccccc1)OC(=O)C1C(C=C(Cl)Cl)C1(C)C (stereo not drawn) [Compound 144, 1-Ethynyl-4-phenoxy-2-butyn-1-yl 2',2'-dimethyl-3'-(2",2"-dichlorovinyl)-cyclopropanecarboxylate] | 290 (≈ 769 µM) |
| C#CC(C#CCOC)OC(=O)C1C(C=C(C)C)C1(C)C (stereo not drawn) [Compound 68, 1-Ethynyl-4-methoxy-2-butyn-1-yl chrysanthemate] | 4000 (≈ 14600 µM) |
| C#CC(C=CC1C=CCC1)OC(=O)C1C(C=C(C)C)C1(C)C (stereo not drawn) [Compound 102, 1-Ethynyl-3-(2'-cyclopentenyl)-allyl chrysanthemate] | 600 (≈ 2010 µM) |
| C#CC(C#CCOc1ccccc1)OC(=O)C1C(C=C(C)C)C1(C)C (stereo not drawn) [Compound 79, 1-Ethynyl-4-phenoxy-2-butyn-1-yl chrysanthemate] | 830 (≈ 2470 µM) |
| C#CC(C#CCC=C)OC(=O)C1C(C=C(Cl)Cl)C1(C)C (stereo not drawn) [Compound 143, 1-Ethynyl-4-vinyl-2-butyn-1-yl 2',2'-dimethyl-340-(2",2"-dichloro-vinyl)-cyclopropanecarboxylate] | 820 (≈ 2630 µM) |
